# The supplement of paper PMC10307832
# How the values were obtained:
# Experiment in all cases: relative viability (nuclei count vs DMSO), 5 days (fraction); higher = more cells survive
# 201T = test system: 201T
# Method in brief: (§1)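 Cells from lung cancer lines were seeded into 1536-well plates and, one day later, dosed by pin tool. Treatments were either a single drug or a fixed dose of an anchor drug with five library-drug doses (not always all listed) in √10 steps. After 5 days, nuclei were stained in a one-step fixation (final 0.05% Triton X-100, 1% formaldehyde, 1 ug/ml Hoechst) and counted on 4× images, and relative viability is the treated-to-vehicle nuclei ratio, as the median of duplicate plates.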
# A-427 = test system: A-427
# Method in brief: as §1
# BEN = test system: BEN
# Method in brief: as §1
# COR-L23 = test system: COR-L23
# Method in brief: as §1
# EKVX = test system: EKVX
# Method in brief: as §1
# HARA = test system: HARA
# Method in brief: as §1
# HCC-15 = test system: HCC-15
# Method in brief: as §1
# HCC-44 = test system: HCC-44
# Method in brief: as §1
# HCC-827 = test system: HCC-827
# Method in brief: as §1
# NCI-H1437 = test system: NCI-H1437
# Method in brief: as §1
# NCI-H1792 = test system: NCI-H1792
# Method in brief: as §1
# NCI-H1975 = test system: NCI-H1975
# Method in brief: as §1
# NCI-H23 = test system: NCI-H23
# Method in brief: as §1
# NCI-H358 = test system: NCI-H358
# Method in brief: as §1
# NCI-H441 = test system: NCI-H441
# Method in brief: as §1
# NCI-H596 = test system: NCI-H596
# Method in brief: as §1
# NCI-H650 = test system: NCI-H650
# Method in brief: as §1
# NCI-H838 = test system: NCI-H838
# Method in brief: as §1
# SK-MES-1 = test system: SK-MES-1
# Method in brief: as §1
smiles,measurement,setting,value
Cc1sc2c(c1C)C(c1ccc(Cl)cc1)=N[C@@H](CC(=O)OC(C)(C)C)c1nnc(C)n1-2 [JQ1] + C[C@]1(O)C[C@@H](c2nc(-c3ccc4ccc(-c5ccccc5)nc4c3)c3c(N)nccn32)C1 [Linsitinib] (partner 1 µM),relative viability,201T; first compound 0.04 µM,0.996
same,relative viability,201T; first compound 0.1265 µM,1.08
same,relative viability,201T; first compound 0.4 µM,0.924
same,relative viability,201T; first compound 1.265 µM,0.607
same,relative viability,201T; first compound 4 µM,0.511
same,relative viability,A-427; first compound 0.04 µM,1.19
same,relative viability,A-427; first compound 0.1265 µM,1.04
same,relative viability,A-427; first compound 0.4 µM,1.14
same,relative viability,A-427; first compound 1.265 µM,1.06
same,relative viability,A-427; first compound 4 µM,0.721
same,relative viability,BEN; first compound 0.04 µM,0.886
same,relative viability,BEN; first compound 0.1265 µM,0.742
same,relative viability,BEN; first compound 0.4 µM,0.524
same,relative viability,BEN; first compound 1.265 µM,0.347
same,relative viability,BEN; first compound 4 µM,0.224
same,relative viability,COR-L23; first compound 0.04 µM,0.931
same,relative viability,COR-L23; first compound 0.1265 µM,0.74
same,relative viability,COR-L23; first compound 0.4 µM,0.818
same,relative viability,COR-L23; first compound 1.265 µM,0.226
same,relative viability,COR-L23; first compound 4 µM,0.172
same,relative viability,EKVX; first compound 0.04 µM,0.935
same,relative viability,EKVX; first compound 0.1265 µM,0.813
same,relative viability,EKVX; first compound 0.4 µM,1.01
same,relative viability,EKVX; first compound 1.265 µM,0.72
same,relative viability,EKVX; first compound 4 µM,0.461
same,relative viability,HARA; first compound 0.04 µM,0.902
same,relative viability,HARA; first compound 0.1265 µM,0.624
same,relative viability,HARA; first compound 0.4 µM,0.399
same,relative viability,HARA; first compound 1.265 µM,0.205
same,relative viability,HARA; first compound 4 µM,0.163
same,relative viability,HCC-15; first compound 0.04 µM,0.732
same,relative viability,HCC-15; first compound 0.4 µM,0.769
same,relative viability,HCC-15; first compound 1.265 µM,0.542
same,relative viability,HCC-15; first compound 4 µM,0.476
same,relative viability,HCC-44; first compound 0.04 µM,0.704
same,relative viability,HCC-44; first compound 0.1265 µM,0.448
same,relative viability,HCC-44; first compound 0.4 µM,0.32
same,relative viability,HCC-44; first compound 1.265 µM,0.31
same,relative viability,HCC-44; first compound 4 µM,0.283
same,relative viability,HCC-827; first compound 0.04 µM,0.921
same,relative viability,HCC-827; first compound 0.4 µM,1.16
same,relative viability,HCC-827; first compound 1.265 µM,0.958
same,relative viability,HCC-827; first compound 4 µM,0.862
same,relative viability,NCI-H1437; first compound 0.04 µM,0.897
same,relative viability,NCI-H1437; first compound 0.1265 µM,0.804
same,relative viability,NCI-H1437; first compound 0.4 µM,0.481
same,relative viability,NCI-H1437; first compound 1.265 µM,0.228
same,relative viability,NCI-H1437; first compound 4 µM,0.18
same,relative viability,NCI-H1792; first compound 0.04 µM,0.587
same,relative viability,NCI-H1792; first compound 0.4 µM,0.569
same,relative viability,NCI-H1792; first compound 1.265 µM,0.31
same,relative viability,NCI-H1792; first compound 4 µM,0.274
same,relative viability,NCI-H1975; first compound 0.04 µM,0.864
same,relative viability,NCI-H1975; first compound 0.1265 µM,0.835
same,relative viability,NCI-H1975; first compound 0.4 µM,0.723
same,relative viability,NCI-H1975; first compound 1.265 µM,0.434
same,relative viability,NCI-H1975; first compound 4 µM,0.379
same,relative viability,NCI-H23; first compound 0.04 µM,0.513
same,relative viability,NCI-H23; first compound 0.1265 µM,0.555
same,relative viability,NCI-H23; first compound 0.4 µM,0.385
same,relative viability,NCI-H23; first compound 1.265 µM,0.339
same,relative viability,NCI-H23; first compound 4 µM,0.288
same,relative viability,NCI-H358; first compound 0.04 µM,0.645
same,relative viability,NCI-H358; first compound 0.1265 µM,0.829
same,relative viability,NCI-H358; first compound 0.4 µM,0.715
same,relative viability,NCI-H358; first compound 1.265 µM,0.442
same,relative viability,NCI-H358; first compound 4 µM,0.45
same,relative viability,NCI-H441; first compound 0.04 µM,0.774
same,relative viability,NCI-H441; first compound 0.1265 µM,0.484
same,relative viability,NCI-H441; first compound 0.4 µM,0.579
same,relative viability,NCI-H441; first compound 1.265 µM,0.386
same,relative viability,NCI-H441; first compound 4 µM,0.306
same,relative viability,NCI-H596; first compound 0.04 µM,1.22
same,relative viability,NCI-H596; first compound 0.1265 µM,1.03
same,relative viability,NCI-H596; first compound 0.4 µM,0.587
same,relative viability,NCI-H596; first compound 1.265 µM,0.418
same,relative viability,NCI-H596; first compound 4 µM,0.361
same,relative viability,NCI-H650; first compound 0.04 µM,0.913
same,relative viability,NCI-H650; first compound 0.1265 µM,0.507
same,relative viability,NCI-H650; first compound 0.4 µM,0.503
same,relative viability,NCI-H650; first compound 1.265 µM,0.291
same,relative viability,NCI-H650; first compound 4 µM,0.26
same,relative viability,NCI-H838; first compound 0.04 µM,0.954
same,relative viability,NCI-H838; first compound 0.1265 µM,0.543
same,relative viability,NCI-H838; first compound 0.4 µM,0.74
same,relative viability,NCI-H838; first compound 1.265 µM,0.307
same,relative viability,NCI-H838; first compound 4 µM,0.229
same,relative viability,SK-MES-1; first compound 0.04 µM,1.02
same,relative viability,SK-MES-1; first compound 0.1265 µM,0.752
same,relative viability,SK-MES-1; first compound 0.4 µM,0.862
same,relative viability,SK-MES-1; first compound 1.265 µM,0.332
same,relative viability,SK-MES-1; first compound 4 µM,0.374
